In experiment [1] the test system is patients registered in THIN database. Put plainly: THIN cohort study 1995-2017: incidence of IMIDs according to mirtazapine exposure (Example 9). Conditions: THIN 1995-2017. The format is in vivo, human. The source says:
Data source: THIN is a primary care patient oriented electronic medical record (EMR) database. It is one of the largest medical databases in the UK, consisting of prospectively gathered electronic medical records from over 11.1 million patients (˜3.7 million active patients), the equivalent to 75.6 million patient years, from more than 560 general practices in the UK, covering 6.2% of the UK population. All data elements are fully anonymised and validated by Cegedim Strategic Data (CSD)-Medical Research UK. […] Data from participant general practitioners across the UK are exported to THIN administrators and the database is updated every 3 months.
Study cohort: All adult patients (18 years) registered in THIN database starting from Jan. 1, 1995. Since mirtazapine was approved and available in the UK, Europe, and US markets by 1996, all patients who were prescribed mirtazapine with a prescription duration longer than 30 days, were defined as incident cases. We assessed the hazard of developing each studied IMID (CD, UC, psoriasis, MS or RA) separately. […] Similarly, in the same MS cohort, if a patient develops another IMID of interest prior to a diagnosis of MS, the index date of outcome will be the date of MS diagnosis. In all of our cohorts, we will follow patients from study start date until an incident diagnosis of IMID of interest, death, loss to follow-up or end of follow-up.
Inclusion and exclusion criteria: Patients should not have any interruption of registration or leave of practice. Cases with mirtazapine prescription duration of less than 30 days or unknown duration were excluded from the study.
Exposure variable of interest: Our primary exposure variable was mirtazapine. We used Read codes to identify mirtazapine usage, duration, dose, and start date. Our primary outcome was the incident diagnosis of one of the following conditions: Crohn's disease, multiple sclerosis, psoriasis, rheumatoid arthritis, and ulcerative colitis during study follow-up period (1995-2017).
a) Demographic covariates: Pre-specified covariates include age at diagnosis; sex; and cigarette smoking status is defined either (1) current smoker, coded for smoking within 12 months of the index date (condition diagnosis date); (2) ex-smoker, coded for smoking before but not within 12 months of the index date; or (3) never smoked, coded either as a lifetime non-smoker or not recorded as a smoker; alcohol consumption classified as current, former, never consumed alcohol, or unknown status at diagnosis; body mass index (weight in kg and height in m2); and socioeconomic status measured by the Mosaic scale which is a consumer classification scale that captures demographics, lifestyles, and behaviours (10 classes).
b) Depression: Read codes were used to identify patients with major depressive disorder (MDD). Read codes associated with only symptoms of depression, bipolar disorder, mania or hypomania were excluded. MDD was defined as (1) never diagnosed with MDD; (2) past MDD diagnosis prior to 90 days from index date; or (3) current MDD diagnosis if a diagnosis was made within 90 days before or after the index date.
c) Comorbidities: We used the Quality and Outcomes Framework (QOF) Read codes to assess for the following comorbidities: asthma, atrial fibrillation, cancer, chronic kidney disease (stages 3-5), chronic obstructive pulmonary disease, coronary heart disease, dementia, diabetes, epilepsy, heart failure, hypertension, and hypothyroid. […]

For experiment [2], the system named is hepatic macrophages (Kupffer cells), monocytes and B cells. Put plainly: Intravital microscopy (IVM) of liver after mirtazapine treatment. The experiment is classed as in vivo, mouse. The source says: Rationale and Relevant Preliminary Data: The normal liver macrophage pool consists of a large self-renewing, non-migratory population of KCs that are important for maintaining tissue homeostasis^1-3. KCs are situated within the sinusoidal blood flow and are an essential component of hepatic innate immunity, playing key roles in inflammation and defense^2, 4. In addition, KCs fulfill homeostatic functions important for normal liver physiology5. KCs are capable of considerable phenotypic plasticity and are highly sensitive to changes within the hepatic environment, including cytokines^2, 4, 6, 7. In response to environmental cues, KCs are activated and can be polarized along a spectrum between M1-like (induced by IFNγ, TNFα, IL-1β, IL-12, TLR4 agonists) and M2-like (induced by IL-4, IL-13, IL-10) phenotypes^2, 4, 6, 7, and can dynamically shift between these phenotypic extremes in response to changes in their microenvironment^1, 2, 4, 8. This shift is critical for regulating inflammatory and repair processes in the liver^1, 8, 9.

With `CN1CCN2c3ncccc3Cc3ccccc3C2C1` (centres unmarked) [Mirtazapine], in experiment [1] (N = 371, P = 0.006), the “Adjusted incidence rate ratio, Multiple sclerosis” value is 0.80 (0.71-0.88). For the same compound, the “Adjusted incidence rate ratio, Crohn's Disease” value in experiment [1] (N = 490, P = 0.89) is on record as 1.00 (0.93-1.07). In experiment [1] (N = 1375, P = 0.002), the “Adjusted incidence rate ratio, Ulcerative Colitis” value was 0.84 (0.81-0.88). Besides, the “Adjusted incidence rate ratio, R. arthritis” value in experiment [1] (N = 1792, P < 0.001) is given as 0.55 (0.51-0.60). For the same compound, the “Adjusted incidence rate ratio, Psoriasis” value in experiment [1] (N = 5181, P = 0.002) is recorded as 0.93 (0.88-0.98). Moreover, the “Interactions between hepatic B cells (CD19+) and hepatic macrophages (F4/80+)” value in experiment [2] (20 mg/kg, 3 hrs post-treatment, preliminary data) is recorded as “trend towards increased interactions”. Besides, the “Kupffer cell (F4/80+) activation: retraction of cellular processes, rounding of cell shape” value in experiment [2] (1 hr after treatment (FIG. 14)) was “activation of KCs”. For the same compound, the “Hepatic monocyte populations in CCR2RFP/+CX3CR1GFP/+ reporter mice” value in experiment [2] (~20 hrs post-treatment, pilot study) is reported as “apparent increase in overall hepatic monocyte numbers coupled with the appearance of CCR2+CX3CR1+ double positive monocytes”.

The record behind these values is patent US11510928B2, “Use of mirtazapine in the treatment of inflammatory disorders, autoimmune disease and PBC” (UTI Limited Partnership, priority 2017, dated 2022).
